From PubChem BioAssay AID248 (DTP/NCI, 2004)
Inconclusive results and toxic doses are left out. No stated cut-off is given here; in the data, active means T/C of 150% or more; inactive means T/C below 125%.

System: L1210 leukemia ip in BDF1 mice, survival T/C
Assay: NCI In Vivo Anticancer Drug Screen. Data for tumor model L1210 Leukemia (intraperitoneal) in B6D2F1 (BDF1) mice
Conditions: endpoint: mean survival time, higher = longer survival
Procedure, shortened: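 Ratio derived from survival: compound-dosed mice over vehicle-dosed mice, all bearing a transplantable tumor.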

[1] = dose: 50.0 mg/kg/injection, schedule: Q01DX009 (ip), vehicle: Klucel (hydroxypropylcellulose) (HPC)
[2] = dose: 100.0 mg/kg/injection, schedule: Q04DX003 (ip), vehicle: Klucel (hydroxypropylcellulose) (HPC)
[3] = dose: 100.0 mg/kg/injection, schedule: Q01DX001 (ip), vehicle: saline
[4] = dose: 200.0 mg/kg/injection, schedule: Q01DX001 (ip), vehicle: saline
[5] = dose: 400.0 mg/kg/injection, schedule: Q01DX001 (ip), vehicle: saline
[6] = dose: 100.0 mg/kg/injection, schedule: Q01DX001 (ip), vehicle: carboxymethylcellulose (CMC)
[7] = dose: 200.0 mg/kg/injection, schedule: Q01DX001 (ip), vehicle: carboxymethylcellulose (CMC)
[8] = dose: 400.0 mg/kg/injection, schedule: Q01DX001 (ip), vehicle: carboxymethylcellulose (CMC)
[9] = dose: 100.0 mg/kg/injection, schedule: Q01DX009 (ip), vehicle: Klucel (hydroxypropylcellulose) (HPC)
[10] = dose: 200.0 mg/kg/injection, schedule: Q01DX009 (ip), vehicle: Klucel (hydroxypropylcellulose) (HPC)
[11] = dose: 200.0 mg/kg/injection, schedule: Q04DX003 (ip), vehicle: Klucel (hydroxypropylcellulose) (HPC)
[12] = dose: 400.0 mg/kg/injection, schedule: Q01DX009 (ip), vehicle: Klucel (hydroxypropylcellulose) (HPC)
[13] = dose: 400.0 mg/kg/injection, schedule: Q04DX003 (ip), vehicle: Klucel (hydroxypropylcellulose) (HPC)
[14] = dose: 100.0 mg/kg/injection, schedule: Q04DX003 (ip), vehicle: saline with Tween-80
[15] = dose: 200.0 mg/kg/injection, schedule: Q04DX003 (ip), vehicle: saline with Tween-80
[16] = dose: 400.0 mg/kg/injection, schedule: Q04DX003 (ip), vehicle: saline with Tween-80
[17] = dose: 100.0 mg/kg/injection, schedule: Q01DX001 (ip), vehicle: other
[18] = dose: 200.0 mg/kg/injection, schedule: Q01DX001 (ip), vehicle: other
[19] = dose: 400.0 mg/kg/injection, schedule: Q01DX001 (ip), vehicle: other

Measured: T/C

CC12CCC(C(=N/O)/C1=N\O)C2(C)C (stereo not given)
inactive: dose: 20.0 mg/kg/injection, schedule: Q04DX003 (ip), vehicle: Klucel (hydroxypropylcellulose) (HPC) 106 % of control | dose: 25.0 mg/kg/injection, schedule: Q01DX009 (ip), vehicle: Klucel (hydroxypropylcellulose) (HPC) 107 % of control | dose: 40.0 mg/kg/injection, schedule: Q04DX003 (ip), vehicle: Klucel (hydroxypropylcellulose) (HPC) 103 % of control | [1] 107 % of control | dose: 80.0 mg/kg/injection, schedule: Q04DX003 (ip), vehicle: Klucel (hydroxypropylcellulose) (HPC) 105 % of control | [2] 96 % of control

CC(C)(C)OOC(=O)Nc1ccc(Cl)cc1
inactive: dose: 200.0 mg/kg/injection, schedule: Q01DX001 (ip), vehicle: saline with Tween-80 89 % of control | dose: 400.0 mg/kg/injection, schedule: Q01DX001 (ip), vehicle: saline with Tween-80 92 % of control

C=C(C)[C@@H]1CC[C@@H](C)C[C@H]1O
inactive: [3] 103 % of control | [4] 100 % of control | [5] 105 % of control

Cc1ccc(S(=O)(=O)N2CC(O)C=Cc3ccccc32)cc1 (stereo not given)
inactive: [6] 107 % of control | [7] 105 % of control | [8] 110 % of control

Cc1ccc(NC(=S)NC(Cc2ccccc2)c2ccccc2)cc1 (stereo not given)
inactive: [9] 97 % of control | [10] 94 % of control | [11] 93 % of control | [12] 96 % of control | [13] 102 % of control

COC(=O)/C=C/C(=O)NC(N)=O
inactive: dose: 6.25 mg/kg/injection, schedule: Q01DX009 (ip), vehicle: saline 93 % of control | dose: 12.5 mg/kg/injection, schedule: Q01DX009 (ip), vehicle: saline 98 % of control | dose: 25.0 mg/kg/injection, schedule: Q01DX009 (ip), vehicle: saline 101 % of control

O=C1NC(=O)/C(=C\c2ccc3c(c2)OCO3)S1
inactive: dose: 2.5 mg/kg/injection, schedule: Q01DX009 (ip), vehicle: saline with Tween-80 96 % of control | dose: 5.0 mg/kg/injection, schedule: Q01DX009 (ip), vehicle: saline with Tween-80 91 % of control | dose: 10.0 mg/kg/injection, schedule: Q01DX009 (ip), vehicle: saline with Tween-80 89 % of control

O=C(O)CNc1cccc([N+](=O)[O-])c1
inactive: dose: 65.0 mg/kg/injection, schedule: Q01DX009 (ip), vehicle: Klucel (hydroxypropylcellulose) (HPC) 100 % of control | [9] 100 % of control | [2] 98 % of control | dose: 150.0 mg/kg/injection, schedule: Q01DX009 (ip), vehicle: Klucel (hydroxypropylcellulose) (HPC) 94 % of control | [11] 93 % of control | [13] 101 % of control

CC1(C)C2CCC1(C)C(OCCC#N)C2 (stereo not given)
inactive: dose: 100.0 mg/kg/injection, schedule: Q04DX002 (ip), vehicle: saline 93 % of control | dose: 200.0 mg/kg/injection, schedule: Q04DX002 (ip), vehicle: saline 107 % of control | dose: 400.0 mg/kg/injection, schedule: Q04DX002 (ip), vehicle: saline 104 % of control

Cc1nc2c3nc(C)oc3c3ccccc3c2o1
inactive: dose: 100.0 mg/kg/injection, schedule: Q01DX001 (ip), vehicle: Klucel (hydroxypropylcellulose) (HPC) 97 % of control | dose: 200.0 mg/kg/injection, schedule: Q01DX001 (ip), vehicle: Klucel (hydroxypropylcellulose) (HPC) 89 % of control | dose: 400.0 mg/kg/injection, schedule: Q01DX001 (ip), vehicle: Klucel (hydroxypropylcellulose) (HPC) 86 % of control

Cc1cccc(C)c1NC(=O)NC(C)C
inactive: [9] 106 % of control | [2] 93 % of control | [10] 94 % of control | [11] 94 % of control | [12] 99 % of control | [13] 93 % of control

CC(=O)O/N=C\C(C)=N\OC(C)=O
inactive: dose: 15.0 mg/kg/injection, schedule: Q01DX Z (ip), vehicle: saline 109 % of control | dose: 30.0 mg/kg/injection, schedule: Q01DX Z (ip), vehicle: saline 109 % of control | dose: 60.0 mg/kg/injection, schedule: Q01DX Z (ip), vehicle: saline 107 % of control | dose: 120.0 mg/kg/injection, schedule: Q01DX Z (ip), vehicle: saline 107 % of control

O=C(OCC(F)(F)C(F)(F)C(F)(F)C(F)F)c1ccccc1C(=O)OCC(F)(F)C(F)(F)C(F)(F)C(F)F
inactive: dose: 50.0 mg/kg/injection, schedule: Q01DX001 (ip), vehicle: carboxymethylcellulose (CMC) 91 % of control | [6] 107 % of control | [7] 105 % of control | [8] 94 % of control

CC(O)CNC(=O)C(C)O (stereo not given)
inactive: [14] 98 % of control | [15] 97 % of control | [16] 102 % of control

COc1ccc(C(OC2OC(n3cnc4c(=S)nc(N)[nH]c43)CC2OC(C)=O)(c2ccccc2)c2ccc(OC)cc2)cc1 (stereo not given)
inactive: [9] 97 % of control | [2] 101 % of control | [10] 97 % of control | [11] 97 % of control | [12] 95 % of control | [13] 97 % of control

O=C(O)/C=C\C(Cl)(Cl)Cl
inactive: dose: 100.0 mg/kg/injection, schedule: Q04DX002 (ip), vehicle: saline with Tween-80 97 % of control | dose: 200.0 mg/kg/injection, schedule: Q04DX002 (ip), vehicle: saline with Tween-80 93 % of control

CC1=CC(C)(C)NC(=S)N1c1ccccc1
inactive: [2] 103 % of control | [10] 86 % of control | [11] 103 % of control | [12] 87 % of control | [13] 101 % of control

CC1N=C(N)NC(=O)C1c1ccc(Cl)cc1 (stereo not given)
inactive: dose: 100.0 mg/kg/injection, schedule: Q01DX009 (ip), vehicle: saline with Tween-80 103 % of control | dose: 200.0 mg/kg/injection, schedule: Q01DX009 (ip), vehicle: saline with Tween-80 100 % of control

Nc1ccccc1Sc1c(N)cc2c3c(cccc13)C(=O)NC2=O
inactive: [9] 90 % of control | [10] 90 % of control | [12] 94 % of control

COC1C=CC(OC)(C(OC)OC)O1 (stereo not given)
inactive: [3] 104 % of control | [4] 101 % of control | [5] 98 % of control

CC1CCC(C(C)C)C(N(C)Cc2cc(Br)cc(Br)c2O)C1 (stereo not given)
inactive: [1] 102 % of control | [9] 107 % of control | [14] 104 % of control | [10] 105 % of control | [15] 104 % of control | [16] 98 % of control

CO/C=C(\C)C(=O)NC(=O)Nc1ccccc1
inactive: [17] 93 % of control | [18] 98 % of control | [19] 96 % of control

O=c1c(O)c(-c2ccc(Cl)cc2)oc2cc(O)ccc12
inactive: [17] 101 % of control | [18] 101 % of control | [19] 93 % of control

CC(=O)c1cc2ccccc2o1
inactive: dose: 6.25 mg/kg/injection, schedule: Q04DX003 (ip), vehicle: water 103 % of control | dose: 12.5 mg/kg/injection, schedule: Q04DX003 (ip), vehicle: water 109 % of control | [1] 92 % of control | dose: 50.0 mg/kg/injection, schedule: Q04DX003 (ip), vehicle: water 108 % of control | [9] 90 % of control | dose: 100.0 mg/kg/injection, schedule: Q04DX003 (ip), vehicle: water 112 % of control | [10] 95 % of control | dose: 200.0 mg/kg/injection, schedule: Q04DX003 (ip), vehicle: water 123 % of control
